Test results from PMC3363220, “Specific PKG inhibitors: do they really exist?” (BMC Pharmacology, 2011).
Where a SMILES comes first, the peptide text is derived from it. [ ]: non-standard residue; d: D form.

Legend:
PKG in intact cells = settings: ref [1]; cited from earlier work
Text: Cellular cGMP effects can be mediated by a number of effectors including cGMP-dependent protein kinases (PKGs), cGMP-stimulated phosphodiesterase (PDE2), cGMP-inhibited phosphodiesterase (PDE3), and cGMP-gated channels. Pharmacological inhibitors of PKG are often used to discriminate between these diverse cGMP effects. Currently used PKG inhibitors can be divided into three classes: cyclic nucleotide binding site inhibitors like Rp-phosphorothioate analogs, ATP binding site inhibitors like KT5823, and substrate binding site inhibitors like the recently described DT-oligopeptides. However, seve ...

PKG = PKG activity in broken platelet cell experiments; assay type: biochemical; settings: broken platelet cells, measured PKG concentration about 7 µM in platelets
Method: (§1) We tested the inhibitory effects of (D)-DT2 and DT3 on PKG and its effects on intact cells. […] It should be noted that the measured PKG concentration is about 7 µM in platelets and 0.1 – 0.5 µM in all other tested cells.

PKA [1] = assay: PKA activity in broken platelet cell experiments; assay type: biochemical; settings: broken platelet cells; at these concentrations (starting at 5 µM, complete PKG inhibition at 20 µM)
Method: as §1

platelets [2] = assay: platelet function versus PKG activity; assay type: cell-based
Method: as §1

platelets [3] = assay: thrombin-induced calcium mobilization in platelets; assay type: cell-based; settings: preincubation of platelets with 10 nM (D)-DT2
Method: as §1

platelets [4] = assay: calcium mobilization in collagen-stimulated platelets; assay type: cell-based; settings: preincubation of platelets with 10 nM (D)-DT2
Method: as §1

PKA [5] = assay: inhibition of PKA; assay type: biochemical; settings: up to 1 µM (D)-DT2
platelets [6] = assay: aggregation of collagen-stimulated platelets; assay type: cell-based; settings: preincubation of platelets with 10 nM (D)-DT2
Method: as §1

PKG II = assay: inhibition of PKG II; assay type: biochemical; settings: up to 1 µM (D)-DT2
Method: as §1

platelets [7] = assay: thrombin-induced platelet aggregation; assay type: cell-based; settings: preincubation of platelets with 10 nM (D)-DT2
Method: as §1

In the case of `COC(=O)[C@@]1(OC)C[C@H]2O[C@]1(C)n1c3ccccc3c3c4c(c5c6ccccc6n2c5c31)C(=O)N(C)C4` [KT5823], the “PKG inhibition in intact cells” value (PKG in intact cells) is given as “no PKG inhibition”.

For `CC(C)C[C@@H](NC(=O)[C@H]1CCCN1C(=O)[C@H]1CCCN1C(=O)[C@@H](CCCNC(=N)N)NC(=O)[C@@H](CCCNC(=N)N)NC(=O)[C@@H](CCCNC(=N)N)NC(=O)[C@@H](CCC(N)=O)NC(=O)[C@@H](CCCNC(=N)N)NC(=O)[C@@H](CCCNC(=N)N)NC(=O)[C@@H](CCCCN)NC(=O)[C@@H](CCCCN)NC(=O)[C@@H](CCCNC(=N)N)NC(=O)CNC(=O)[C@H](N)Cc1ccc(O)cc1)C(=O)N[C@H](CCCNC(=N)N)C(=O)N[C@H](CCCCN)C(=O)N[C@H](CCCCN)C(=O)N[C@H](CCCCN)C(=O)N[C@H](CCCCN)C(=O)N[C@H](CCCCN)C(=O)N[C@H](Cc1c[nH]cn1)C(N)=O` [(D)-DT2] (H-[dY]G[dR][dK][dK][dR][dR][dQ][dR][dR][dR][dP][dP][dL][dR][dK][dK][dK][dK][dK][dH]-NH2; N-terminus and C-terminus assumed), the “concentration giving complete inhibition of PKG activity” value (PKG; complete inhibition) was 20 µM, the “concentration at which PKG inhibition starts” value (PKG) was 5 µM and the “inhibition of PKA activity” value (PKA [1]) was “observed inhibition of PKA activity”. The “correlation of effects on platelet function with PKG activity” value (platelets [2]) was “did not correlate with PKG activity”, the “effect on thrombin-induced calcium mobilization” value (platelets [3]) was “strongly inhibited” and the “effect on calcium mobilization in collagen-stimulated platelets” value (platelets [4]) was “potentiated”. The “inhibition of PKA” value (PKA [5]) was “did not inhibit”, the “effect on aggregation in collagen-stimulated platelets” value (platelets [6]) was “potentiated” and the “inhibition of PKG II” value (PKG II) was “did not inhibit”. The “effect on thrombin-induced platelet aggregation” value (platelets [7]) was “strongly inhibited”.
